pIC50: −log10 of the molar value. Values joined by “and” are separate entries in the source; they are usually repeats but may differ in a detail not shown here. Equal values may be shown once.
System: COR L88 complex tumor spheroid viability
Assay: Anticancer human tumor COR L88 cell line growth inhibition;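 further: compound exposure lasted 7 days before viability readout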;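 on viability, T/C: percent of DMSO vehicle-treated spheroids = 100%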
Details: for viability, T/C: stronger effect = lower value
In short: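 Complex spheroids of malignant cells with endothelial cells and mesenchymal stem cells; agents alone or combined, from near clinical Cmax (or 10 microM if unknown) down in half-log steps, 0.25% DMSO final.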

[1] = curve of first compound, second compound 1 µM
[2] = curve of first compound, second compound 3.16 µM
[3] = curve of first compound, second compound 10 µM
[4] = curve of first compound, second compound 31.6 µM
[5] = curve of first compound, second compound 100 µM

**Q.** Which results are given for `O=C(c1cc(Cc2n[nH]c(=O)c3ccccc23)ccc1F)N1CCN(C(=O)C2CC2)CC1` + CC[C@@]1(O)C(=O)OCc2c1cc1n(c2=O)Cc2cc3c(CN(C)C)c(O)ccc3nc2-1?
**A.** pIC50 (curve of first compound, second compound 0.003 µM): 5.01; pIC50 (curve of first compound, second compound 0.00949 µM): 5.01; pIC50 (curve of first compound, second compound 0.03 µM): 6.55; pIC50 (curve of first compound, second compound 0.0949 µM): > 7.02; pIC50 (curve of first compound, second compound 0.3 µM): > 7.02; viability, T/C (second compound 0.003 µM, first compound 0.0949 µM): 89%; viability, T/C (second compound 0.003 µM, first compound 0.3 µM): 85.6%; viability, T/C (second compound 0.003 µM, first compound 0.949 µM): 85.3%; viability, T/C (second compound 0.003 µM, first compound 3 µM): 66%; viability, T/C (second compound 0.003 µM, first compound 9.49 µM): 51.3%; viability, T/C (second compound 0.003 µM, first compound 30 µM): 45.6%; viability, T/C (second compound 0.00949 µM, first compound 0.0949 µM): 62.3%; viability, T/C (second compound 0.00949 µM, first compound 0.3 µM): 56.2%; viability, T/C (second compound 0.00949 µM, first compound 0.949 µM): 57.3%; viability, T/C (second compound 0.00949 µM, first compound 3 µM): 57.5%; viability, T/C (second compound 0.00949 µM, first compound 9.49 µM): 47.3%; viability, T/C (second compound 0.00949 µM, first compound 30 µM): 45.8%; viability, T/C (second compound 0.03 µM, first compound 0.0949 µM): 51.3%; viability, T/C (second compound 0.03 µM, first compound 0.3 µM): 50.1%; viability, T/C (second compound 0.03 µM, first compound 0.949 µM): 48.3%; viability, T/C (second compound 0.03 µM, first compound 3 µM): 48%; viability, T/C (second compound 0.03 µM, first compound 9.49 µM): 45.9%; viability, T/C (second compound 0.03 µM, first compound 30 µM): 45.8%; viability, T/C (second compound 0.0949 µM, first compound 0.0949 µM): 45.7%; viability, T/C (second compound 0.0949 µM, first compound 0.3 µM): 44%; viability, T/C (second compound 0.0949 µM, first compound 0.949 µM): 44.3%; viability, T/C (second compound 0.0949 µM, first compound 3 µM): 41.9%; viability, T/C (second compound 0.0949 µM, first compound 9.49 µM): 40.3%; viability, T/C (second compound 0.0949 µM, first compound 30 µM): 33%; viability, T/C (second compound 0.3 µM, first compound 0.0949 µM): 41.4%; viability, T/C (second compound 0.3 µM, first compound 0.3 µM): 41%; viability, T/C (second compound 0.3 µM, first compound 0.949 µM): 39%; viability, T/C (second compound 0.3 µM, first compound 3 µM): 32.6%; viability, T/C (second compound 0.3 µM, first compound 9.49 µM): 24.4%; viability, T/C (second compound 0.3 µM, first compound 30 µM): 18.5%

**Q.** What does the source list for `O=C(c1cc(Cc2n[nH]c(=O)c3ccccc23)ccc1F)N1CCN(C(=O)C2CC2)CC1` + Cn1nnc2c(C(N)=O)ncn2c1=O?
**A.** pIC50 [1]: 4.67; pIC50 [2]: 4.68; pIC50 [3]: 5.03; pIC50 [4]: 5.43; pIC50 [5]: 6.58; viability, T/C (second compound 1 µM, first compound 0.0949 µM): 92.8%; viability, T/C (second compound 1 µM, first compound 0.3 µM): 92.8%; viability, T/C (second compound 1 µM, first compound 0.949 µM): 97.3%; viability, T/C (second compound 1 µM, first compound 3 µM): 78.4%; viability, T/C (second compound 1 µM, first compound 9.49 µM): 61%; viability, T/C (second compound 1 µM, first compound 30 µM): 45.4%; viability, T/C (second compound 3.16 µM, first compound 0.0949 µM): 102%; viability, T/C (second compound 3.16 µM, first compound 0.3 µM): 93.6%; viability, T/C (second compound 3.16 µM, first compound 0.949 µM): 91.8%; viability, T/C (second compound 3.16 µM, first compound 3 µM): 86.5%; viability, T/C (second compound 3.16 µM, first compound 9.49 µM): 54.7%; viability, T/C (second compound 3.16 µM, first compound 30 µM): 47.9%; viability, T/C (second compound 10 µM, first compound 0.0949 µM): 72.6%; viability, T/C (second compound 10 µM, first compound 0.3 µM): 83.1%; viability, T/C (second compound 10 µM, first compound 0.949 µM): 75.5%; viability, T/C (second compound 10 µM, first compound 3 µM): 64.2%; viability, T/C (second compound 10 µM, first compound 9.49 µM): 50.6%; viability, T/C (second compound 10 µM, first compound 30 µM): 45.1%; viability, T/C (second compound 31.6 µM, first compound 0.0949 µM): 61.8%; viability, T/C (second compound 31.6 µM, first compound 0.3 µM): 58.1%; viability, T/C (second compound 31.6 µM, first compound 0.949 µM): 57.5%; viability, T/C (second compound 31.6 µM, first compound 3 µM): 49.5%; viability, T/C (second compound 31.6 µM, first compound 9.49 µM): 45.5%; viability, T/C (second compound 31.6 µM, first compound 30 µM): 41.2%; viability, T/C (second compound 100 µM, first compound 0.0949 µM): 53.9%; viability, T/C (second compound 100 µM, first compound 0.3 µM): 48.4%; viability, T/C (second compound 100 µM, first compound 0.949 µM): 46.5%; viability, T/C (second compound 100 µM, first compound 3 µM): 43.7%; viability, T/C (second compound 100 µM, first compound 9.49 µM): 39%; viability, T/C (second compound 100 µM, first compound 30 µM): 37%

**Q.** Which results are given for `COc1ccc([C@@H](O)c2cc(-c3ncnc4cc(N5CCOCC5)ccc34)c(F)cc2Cl)nn1` + Cn1nnc2c(C(N)=O)ncn2c1=O?
**A.** pIC50 [1]: 5.27; pIC50 [2]: 5.08; pIC50 [3]: < 5.00; pIC50 [4]: < 5.00; pIC50 [5]: < 5.00; viability, T/C (second compound 1 µM, first compound 0.0316 µM): 96.4%; viability, T/C (second compound 1 µM, first compound 0.1 µM): 94.1%; viability, T/C (second compound 1 µM, first compound 0.316 µM): 82%; viability, T/C (second compound 1 µM, first compound 1 µM): 78.3%; viability, T/C (second compound 1 µM, first compound 3.16 µM): 61.4%; viability, T/C (second compound 1 µM, first compound 10 µM): 36.7%; viability, T/C (second compound 3.16 µM, first compound 0.0316 µM): 92.8%; viability, T/C (second compound 3.16 µM, first compound 0.1 µM): 104%; viability, T/C (second compound 3.16 µM, first compound 0.316 µM): 90.9%; viability, T/C (second compound 3.16 µM, first compound 1 µM): 88.2%; viability, T/C (second compound 3.16 µM, first compound 3.16 µM): 64.3%; viability, T/C (second compound 3.16 µM, first compound 10 µM): 47.2%; viability, T/C (second compound 10 µM, first compound 0.0316 µM): 87%; viability, T/C (second compound 10 µM, first compound 0.1 µM): 98.7%; viability, T/C (second compound 10 µM, first compound 0.316 µM): 92%; viability, T/C (second compound 10 µM, first compound 1 µM): 75.1%; viability, T/C (second compound 10 µM, first compound 3.16 µM): 67.9%; viability, T/C (second compound 10 µM, first compound 10 µM): 54.6%; viability, T/C (second compound 31.6 µM, first compound 0.0316 µM): 89.3%; viability, T/C (second compound 31.6 µM, first compound 0.1 µM): 79.9%; viability, T/C (second compound 31.6 µM, first compound 0.316 µM): 84.6%; viability, T/C (second compound 31.6 µM, first compound 1 µM): 73.9%; viability, T/C (second compound 31.6 µM, first compound 3.16 µM): 67.2%; viability, T/C (second compound 31.6 µM, first compound 10 µM): 51.3%; viability, T/C (second compound 100 µM, first compound 0.0316 µM): 69.9%; viability, T/C (second compound 100 µM, first compound 0.1 µM): 70.8%; viability, T/C (second compound 100 µM, first compound 0.316 µM): 68%; viability, T/C (second compound 100 µM, first compound 1 µM): 62.5%; viability, T/C (second compound 100 µM, first compound 3.16 µM): 58.1%; viability, T/C (second compound 100 µM, first compound 10 µM): 55.4%

**Q.** What does the source list for `COc1cc(C)[nH]c(=O)c1CN1CCc2c(Cl)cc(C(OC)C3COC3)c(Cl)c2C1=O` (configuration not stated)?
**A.** viability, T/C (compound 0.0316 µM): 109% and 91.5% and 89.8%; viability, T/C (compound 0.1 µM): 100% and 89.6% and 97%; viability, T/C (compound 0.316 µM): 95.5% and 80.1% and 98.1%; viability, T/C (compound 1 µM): 89.2% and 76.7% and 91.4%; viability, T/C (compound 3.16 µM): 96.1% and 84.8% and 85.8%; viability, T/C (compound 10 µM): 92.2% and 75.5% and 90.1%; pIC50 (curve of compound): < 5.00

Source: PubChem BioAssay AID1845201 (Molecular Pharmacology Branch, DTP, NCI, 2023)
